This note sets out measurements from US20250042918A1, “COMPOUNDS” (Fundación Del Sector Públlco Estatal Centro Nacional De …, priority 2021, published 2025).

As usually defined, the IC50 is the midpoint of a concentration-inhibition curve.

In one experiment the test system is T-47D. The experiment can be described thus: In vitro potency against breast cancer cell lines (CellTiter Glo). It is filed as cell-based. The note with it: Homo sapiens, T47D, 72 h; read-out: absolute IC50 T-47D. As to the method:
(§1) To prepare the complete medium FBS and appropriate additives were added according to the information sheet provided by the vendor and mixed gently. The cell name and complete medium and passage number marked on the flask were checked, and the culture medium removed and discarded using a vacuum pump. […] 3.0 ml of Trypsin-EDTA solution was added to the flask and the cells observed under an inverted microscope until cell layer is dispersed. 8.0 ml of complete growth medium was added and the cells aspirated by gently pipetting. The cell suspension was transferred to a centrifuge tube and centrifuged at 800-1000 rpm for 3-5 minutes. The supernatant was discarded using a vacuum pump, and an appropriate volume of complete medium added. The cell pellet was suspended by gently pipetting, and the cell numbers counted with Vi-cell XR and the cells adjusted to appropriate density. 100 μL of cell suspension to 96-well opaque-walled clear bottom plates was added according to the planned plate layout and the plates placed in the CO2 incubator overnight.
(§2) c. […] Meanwhile the day 0 plate was measured by Cell TiterGlo as listed below.
(§3) d. Cells were incubated with the compounds for 72 h at 5% CO2, 37° C.
(§4) The CellTiter-Glo buffer was thawed and equilibrated to room temperature prior to use. The lyophilized CellTiter-Glo substrate was equilibrated to room temperature prior to use. The appropriate volume of CellTiter-Glo buffer was transferred into the amber bottle containing CellTiter-Glo substrate to reconstitute the lyophilized enzyme/substrate mixture, thereby forming the CellTiter-Glo reagent. Mixing was carried out by gently vortexing, swirling or by inverting the contents to obtain a homogeneous solution, the CellTiter-Glo substrate going into solution easily in less than one minute.
(§5) The plate and its contents were equilibrated to room temperature for approximately 30 minutes, after which 100 μL of CellTiter-Glo reagent was added to the assay plate by Multidrop Combi instrument and the contents mixed for 10 minutes on an orbital shaker to induce cell lysis. The plate was allowed to incubate at room temperature for 10 minutes to stabilize luminescent signal and the clear bottom pasted with white back seal and the luminescence recorded with Enspire with the settings: Luminescence, measurement time 0.1 ms.

A further experiment has as its system BT-474. The description is as above. It is filed as cell-based. The conditions noted are these: Homo sapiens, BT-474, 72 h; read-out: absolute IC50 BT-474. As to the method:
as §1, §2, §3, §4, §5

The test system of another experiment is HCC1143. The experiment is described as above. The class given is cell-based. The note with it: Homo sapiens, HCC1143, 72 h; read-out: absolute IC50 HCC1143. The method, then:
as §1, §2, §3, §4, §5

The next experiment concerns MDA-MB-361. The description is as above. The class given is cell-based. The conditions noted are these: Homo sapiens, MDA-MB-361, 72 h; read-out: absolute IC50 MDA-MB-361. The method, then:
as §1, §2, §3, §4, §5

The next experiment relates to HCC1954. The experiment is described as above. It is filed as cell-based. The note with it: Homo sapiens, HCC1954, 72 h; read-out: absolute IC50 HCC1954. The method, then:
as §1, §2, §3, §4, §5

The test system of a further experiment is HCC38. The description is as above. The class given is cell-based. The conditions noted are these: Homo sapiens, HCC38, 72 h; read-out: absolute IC50 HCC38. As to the method:
as §1, §2, §3, §4, §5

Experiment [1] concerns Naïve CD4+ T cells, Th1 cells. The experiment can be described thus: CD4+ T cell differentiation under Th1 conditions (IFNγ, ELISA and FACS). The class given is cell-based, mice. The method, then: Naïve CD4^+ T cells were purified from mice spleens and lymph nodes using positive selection by magnetic beads (CD4 L3T4 Kit, Miltenyi Biotec, UK). The purified T cells were activated by plate-bound αCD3ε (1 μg/ml; 2C11) and αCD28 (3 μg/ml; 37.51) in the presence or absence of the compound of Example 1 or Cyclosporin A (Sigma Aldrich), and cultured for 72 hrs under Th1 conditions (IL-12 [20 ng/ml]+αIL-4 (11B1) [10 μg/ml]), 72 hrs under Th17 conditions (αIFNγ [10 μg/ml]+αIL-4 [5 μg/ml]+IL-6 [[…]]+TGFβ(5 ng/ml)), and 96 hrs under iTreg conditions (TGFβ (5 ng/ml)) at 37° C.
ELISA kits for mouse IFNγ and IL-17a were purchased from eBioscience (Thermo Fisher, UK) and performed in accordance to manufacturer's instructions using Corning® High Binding ELISA plates (Merck, CLS9018). All ELISAs were analysed using a Synergy MX microplate reader (BioTek).
Intracellular protein expression was evaluated by first restimulating the cells with phorbol-12-myristate 13-acetate (PMA)(10 ng/ml) (Sigma Aldrich), ionomycin (1 μg/ml) (Sigma Aldrich) and Brefeldin A (5 μg/ml) (eBioscience) for 4-6 hours at 37° C. […] Fc block (93) and all fluorescence dye labelled antibodies used αCD4 (GK1.5), αIFNγ (XMG1.2), αIL-17a (17B7), αFOXP3 (NRRF-30; FJK-16S) were purchased from eBiosciences (Thermo Fisher, UK). […]
In general terms: An ELISA detects its analyte on a solid surface through an enzyme-linked reagent.

For the compound `CN1CCOc2c1c(N[C@H]1CC[C@@](C)(O)CC1)nn1c(-c3cccc(OC(F)(F)F)c3)nnc21` [Example 1, 1-Methyl-4-[6-methyl-3-(3-trifluoromethoxy-phenyl)-7,8-dihydro-6H-9-oxa-1,2,3a,4,6-pentaaza-cyclopenta[a]naphthalen-5-ylamino]-cyclohexanol], the IC50 in the experiment with T-47D amounted to 6.19 µM; in the experiment on BT-474, 7.77 µM; with HCC1143, 5.56 µM; in the experiment with MDA-MB-361, 9 µM; with HCC1954, 8.04 µM; with HCC38, 5.56 µM. For the same compound, the “pro-inflammatory Th1 responses” value in experiment [1] (12.5 nM, 72 hrs Th1 conditions) is given as “significant suppression”. For the same compound, in experiment [1] (across a range of concentrations, ELISA and FACS), the “Differentiation of Th1 cells in vitro as determined by the secretion of IFNγ” value is “inhibited”.
